From BindingDB's records for doi:10.1016/j.bmcl.2003.12.063 (Sankyo, 2004)

These compounds were tested against Ileal sodium/bile acid cotransporter (Mesocricetus auratus) (assay: In vitro Inhibition of apical sodium-dependent bile acid transporter by measuring the uptake of [3H]taurocholate in hamster ileal ring).
`CCCCC1(CCCC)CS(=O)(=O)c2ccc(N(C)C)cc2[C@@H](c2ccc(OC)cc2)[C@H]1O` [(4R,5R)-3,3-Dibutyl-7-dimethylamino-5-(4-methoxy-phenyl)-1,1-dioxo-2,3,4,5-tetrahydro-1H-1lambda*6*-benzo[b]thiepin-4-ol] was tested, and the IC50 was > 63000 nM.
In the case of `CCC(CC)CC(=O)c1c(C(=O)OC)c(-c2ccc(OC)c(OC)c2)c2c(OC)c(OC)c(OC)cc2c1OC1O[C@H](C(=O)O)[C@@H](O)[C@H](O)[C@H]1O` (stereo partly drawn) [(2S,3S,4S,5R)-6-[4-(3,4-Dimethoxy-phenyl)-2-(3-ethyl-pentanoyl)-5,6,7-trimethoxy-3-methoxycarbonyl-naphthalen-1-yloxy]-3,4,5-trihydroxy-tetrahydro-pyran-2-carboxylic acid], the IC50 is reported as 2800 nM.
In the case of `CCN(C(=O)c1cn(-c2cc(OC)cc(OC)c2)c2cc(OCCCCCCC[N+]34CCN(CC3)CC4)ccc2c1=O)c1cc(F)cc(F)c1` [1-{7-[3-[(3,5-Difluoro-phenyl)-ethyl-carbamoyl]-1-(3,5-dimethoxy-phenyl)-4-oxo-1,4-dihydro-quinolin-7-yloxy]-heptyl}-4-aza-1-azonia-bicyclo[2.2.2]octane; bromide], the IC50 is reported as 770 nM.
Work on `CCN(C(=O)c1cn(-c2cc(OC)cc(OC)c2)c2cc(OCCCCCCCC[N+]34CCN(CC3)CC4)ccc2c1=O)c1cc(F)cc(F)c1` [1-{8-[3-[(3,5-Difluoro-phenyl)-ethyl-carbamoyl]-1-(3,5-dimethoxy-phenyl)-4-oxo-1,4-dihydro-quinolin-7-yloxy]-octyl}-4-aza-1-azonia-bicyclo[2.2.2]octane; bromide] yielded an IC50 of 1070 nM.
For `CCC(CC)CC(=O)c1c(C(=O)OC)c(-c2ccc(OC)c(OC)c2)c2c(OC)c(OC)c(OC)cc2c1O` [1-(3,4-Dimethoxy-phenyl)-3-(3-ethyl-pentanoyl)-4-hydroxy-6,7,8-trimethoxy-naphthalene-2-carboxylic acid methyl ester], the IC50 was > 185000 nM.
